Measured values as given in ChEMBL document CHEMBL3286266, “Development of novel benzomorpholine class of diacylglycerol acyltransferase I inhibitors” (ACS Med Chem Lett, 2014).
In brackets after ≈: the same amount, converted by molar mass. Activity calls are given as the source filed them. The calls are words filed in the database; no cut-off is given here.

Legend:
Cytochrome P450 2C9 = Cytochrome P450 2C9 (Homo sapiens, UniProt P11712); assay: Inhibition of CYP2C9 (unknown origin)
[1] = target: T1, Diacylglycerol O-acyltransferase 1 (Mus musculus, UniProt Q9Z2A7); assay: Inhibition of mouse DGAT1 expressed in Sf9 insect cells using 1,2-dioleoyl-sn-glycerol and [14C]-palmitoyl-CoA substrate by scintillation counting analysis
T1 sequence (Q9Z2A7 whole entry): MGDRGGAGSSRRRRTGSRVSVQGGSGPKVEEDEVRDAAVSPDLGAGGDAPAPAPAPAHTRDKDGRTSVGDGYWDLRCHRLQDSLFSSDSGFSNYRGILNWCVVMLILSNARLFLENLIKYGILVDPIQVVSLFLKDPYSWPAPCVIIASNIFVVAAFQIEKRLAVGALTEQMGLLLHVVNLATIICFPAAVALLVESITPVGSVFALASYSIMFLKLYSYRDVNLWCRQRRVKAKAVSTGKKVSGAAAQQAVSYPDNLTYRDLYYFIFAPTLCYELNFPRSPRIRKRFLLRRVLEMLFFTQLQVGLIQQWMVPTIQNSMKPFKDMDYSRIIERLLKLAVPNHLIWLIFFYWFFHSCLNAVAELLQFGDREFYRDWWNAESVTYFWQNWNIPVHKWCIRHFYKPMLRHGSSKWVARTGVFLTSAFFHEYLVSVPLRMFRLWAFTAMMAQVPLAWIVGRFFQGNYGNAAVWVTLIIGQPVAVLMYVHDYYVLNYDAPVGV

Mus musculus [2] = assay: Reduction in triglycerides level in mouse at 1 mg/kg, po after 2 hrs by postprandial triglyceride assay; type: functional
Mus musculus [3] = assay: Reduction in triglycerides level in mouse at 0.3 mg/kg, po after 2 hrs by postprandial triglyceride assay; type: functional
[4] = Total AUC in rat at 10 mg/kg; type: ADME, organism-based; design: time AUCmax, dose 10 mg/kg; details: in vivo
[5] = Clearance in monkey liver hepatocytes measured per million cells; type: ADME, Macaca mulatta, Hepatocyte; details: rhesus monkey, read-out: CLH
[6] = Cmax in rat at 10 mg/kg, po; type: ADME, organism-based; design: dose 10 mg/kg, route oral; details: in vivo
[7] = Cmax in mouse at 1 mg/kg, po; type: ADME, organism-based; design: dose 1 mg/kg, route oral; details: in vivo
[8] = Cmax in dog at 2 mg/kg, po; type: ADME, organism-based, Canis lupus familiaris; design: dose 2 mg/kg, route oral; details: in vivo
[9] = Cmax in monkey at 3 mg/kg, po; type: ADME, organism-based, Macaca mulatta; design: dose 3 mg/kg, route oral; details: rhesus monkey, in vivo
[10] = Half life in rat at 10 mg/kg, po; type: ADME, organism-based; design: dose 10 mg/kg, route oral; details: in vivo
[11] = Half life in mouse at 1 mg/kg, po; type: ADME, organism-based; design: dose 1 mg/kg, route oral; details: in vivo
[12] = Half life in dog at 2 mg/kg, po; type: ADME, organism-based, Canis lupus familiaris; design: dose 2 mg/kg, route oral; details: in vivo
[13] = Half life in monkey at 3 mg/kg, po; type: ADME, organism-based, Macaca mulatta; design: dose 3 mg/kg, route oral; details: rhesus monkey, in vivo
[14] = Oral bioavailability in rat at 10 mg/kg; type: ADME, organism-based; details: in vivo
[15] = Oral bioavailability in mouse at 1 mg/kg; type: ADME, organism-based; details: in vivo
[16] = Permeability in human Caco2 cells; type: ADME, cell-based; details: Caco-2, read-out: permeability
[17] = Clearance in rat liver hepatocytes measured per million cells; type: ADME, cell-based, Hepatocyte; details: read-out: CLH
Hepatocyte = assay: Clearance in human liver hepatocytes measured per million cells; type: ADME, cell-based
Mus musculus [18] = assay: Reduction in triglycerides level in mouse at 3 mg/kg, po after 2 hrs by postprandial triglyceride assay; type: functional
[19] = target: T2, Diacylglycerol O-acyltransferase 1 (Homo sapiens, UniProt O75907); assay: Inhibition of human DGAT1 expressed in Sf9 insect cells using 1,2-dioleoyl-sn-glycerol and [14C]-palmitoyl-CoA substrate by scintillation counting analysis
T2 sequence (O75907 whole entry): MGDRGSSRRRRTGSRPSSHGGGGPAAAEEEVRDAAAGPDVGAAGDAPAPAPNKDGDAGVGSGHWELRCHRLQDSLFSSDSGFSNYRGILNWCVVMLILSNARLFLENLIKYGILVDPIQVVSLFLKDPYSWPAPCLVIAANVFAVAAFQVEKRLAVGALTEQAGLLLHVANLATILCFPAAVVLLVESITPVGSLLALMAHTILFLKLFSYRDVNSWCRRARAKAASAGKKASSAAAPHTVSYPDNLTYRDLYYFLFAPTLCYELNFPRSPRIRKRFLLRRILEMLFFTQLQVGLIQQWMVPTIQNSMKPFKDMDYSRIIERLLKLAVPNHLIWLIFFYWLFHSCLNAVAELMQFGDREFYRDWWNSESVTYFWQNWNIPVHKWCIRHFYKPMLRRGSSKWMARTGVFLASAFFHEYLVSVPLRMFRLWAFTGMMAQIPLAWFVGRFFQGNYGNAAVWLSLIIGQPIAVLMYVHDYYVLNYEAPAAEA

[20] = Solubility in plasma (unknown origin) at pH 7; type: ADME, cell-free
Mus musculus [21] = assay: Reduction in triglycerides level in mouse at 3 mg/kg, po after 12 hrs by postprandial triglyceride assay; type: functional
[22] = Plasma protein binding in human; type: ADME, cell-free; details: read-out: PPB
[23] = Plasma protein binding in mouse; type: ADME; details: read-out: PPB
Mus musculus [24] = assay: Induction of weight loss in diet-induced obese C57BL/6J mouse assessed as decrease in body weight at 30 mg/kg, po qd measured during 11 day chronic study; type: functional; details: 264 h
Mus musculus [25] = assay: Induction of weight loss in diet-induced obese C57BL/6J mouse assessed as reduction in food intake at 30 mg/kg, po qd measured during 1 to 4 days; type: functional, organism-based; design: dose 30 mg/kg
Cannabinoid receptor 1 = Cannabinoid receptor 1 (Homo sapiens, UniProt P21554); assay: Inhibition of CB1 receptor (unknown origin)
[26] = Inhibition of CCK receptor (unknown origin); design: species or system Homo sapiens
D(2) dopamine receptor = D(2) dopamine receptor (Homo sapiens, UniProt P14416); assay: Inhibition of D2 receptor (unknown origin)
[27] = Inhibition of histamine receptor (unknown origin); design: species or system Homo sapiens
[28] = Inhibition of serotonin receptor (unknown origin); design: species or system Homo sapiens
[29] = Inhibition of neuropeptide Y receptor (unknown origin); design: species or system Homo sapiens
[30] = Inhibition of purinergic receptor (unknown origin); design: species or system Homo sapiens
Caspase-8 = Caspase-8 (Homo sapiens, UniProt Q14790); assay: Inhibition of CASP8 (unknown origin)
Caspase-9 = target: T3, Caspase-9 (Homo sapiens, UniProt P55211); assay: Inhibition of CASP9 (unknown origin)
T3 sequence (P55211 whole entry): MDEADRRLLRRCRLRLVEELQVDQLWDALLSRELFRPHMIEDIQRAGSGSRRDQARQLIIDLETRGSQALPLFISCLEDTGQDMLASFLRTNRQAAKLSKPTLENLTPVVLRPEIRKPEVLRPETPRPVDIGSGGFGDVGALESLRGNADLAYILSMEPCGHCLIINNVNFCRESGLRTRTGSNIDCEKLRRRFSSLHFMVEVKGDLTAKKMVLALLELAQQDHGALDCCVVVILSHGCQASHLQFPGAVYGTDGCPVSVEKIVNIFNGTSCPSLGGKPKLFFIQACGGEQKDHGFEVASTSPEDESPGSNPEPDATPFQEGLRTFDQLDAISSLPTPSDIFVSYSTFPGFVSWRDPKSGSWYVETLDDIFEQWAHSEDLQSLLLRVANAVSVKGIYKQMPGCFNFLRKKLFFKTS

[31] = target: Epidermal growth factor receptor (Homo sapiens, UniProt P00533); assay: Inhibition of EGF receptor (unknown origin)
Insulin receptor = Insulin receptor (Homo sapiens, UniProt P06213); assay: Inhibition of insulin receptor (unknown origin)
Prostacyclin receptor = Prostacyclin receptor (Homo sapiens, UniProt P43119); assay: Inhibition of prostanoid IP receptor (unknown origin)
[32] = AUC in rat at 10 mg/kg, po; type: ADME, organism-based; design: dose 10 mg/kg, route oral; details: plasma
[33] = AUC in mouse at 1 mg/kg, po; type: ADME, organism-based; design: dose 1 mg/kg, route oral; details: plasma
[34] = AUC in dog at 2 mg/kg, po; type: ADME, organism-based, Canis lupus familiaris; design: dose 2 mg/kg, route oral; details: plasma
[35] = AUC in monkey at 3 mg/kg, po; type: ADME, organism-based, Macaca mulatta; design: dose 3 mg/kg, route oral; details: rhesus monkey, plasma
[36] = Clearance in mouse liver hepatocytes measured per million cells; type: ADME, Hepatocyte; details: read-out: CLH
[37] = Clearance in dog liver hepatocytes measured per million cells; type: ADME, Canis lupus familiaris, Hepatocyte; details: read-out: CLH
Mus musculus [38] = assay: Induction of weight loss in diet-induced obese C57BL/6J mouse assessed as decrease in body weight at 10 mg/kg, po qd measured during 11 day chronic study; type: functional; design: scale not given: the % may be the effect or the level left

Chain of Epidermal growth factor receptor (P00533 whole entry): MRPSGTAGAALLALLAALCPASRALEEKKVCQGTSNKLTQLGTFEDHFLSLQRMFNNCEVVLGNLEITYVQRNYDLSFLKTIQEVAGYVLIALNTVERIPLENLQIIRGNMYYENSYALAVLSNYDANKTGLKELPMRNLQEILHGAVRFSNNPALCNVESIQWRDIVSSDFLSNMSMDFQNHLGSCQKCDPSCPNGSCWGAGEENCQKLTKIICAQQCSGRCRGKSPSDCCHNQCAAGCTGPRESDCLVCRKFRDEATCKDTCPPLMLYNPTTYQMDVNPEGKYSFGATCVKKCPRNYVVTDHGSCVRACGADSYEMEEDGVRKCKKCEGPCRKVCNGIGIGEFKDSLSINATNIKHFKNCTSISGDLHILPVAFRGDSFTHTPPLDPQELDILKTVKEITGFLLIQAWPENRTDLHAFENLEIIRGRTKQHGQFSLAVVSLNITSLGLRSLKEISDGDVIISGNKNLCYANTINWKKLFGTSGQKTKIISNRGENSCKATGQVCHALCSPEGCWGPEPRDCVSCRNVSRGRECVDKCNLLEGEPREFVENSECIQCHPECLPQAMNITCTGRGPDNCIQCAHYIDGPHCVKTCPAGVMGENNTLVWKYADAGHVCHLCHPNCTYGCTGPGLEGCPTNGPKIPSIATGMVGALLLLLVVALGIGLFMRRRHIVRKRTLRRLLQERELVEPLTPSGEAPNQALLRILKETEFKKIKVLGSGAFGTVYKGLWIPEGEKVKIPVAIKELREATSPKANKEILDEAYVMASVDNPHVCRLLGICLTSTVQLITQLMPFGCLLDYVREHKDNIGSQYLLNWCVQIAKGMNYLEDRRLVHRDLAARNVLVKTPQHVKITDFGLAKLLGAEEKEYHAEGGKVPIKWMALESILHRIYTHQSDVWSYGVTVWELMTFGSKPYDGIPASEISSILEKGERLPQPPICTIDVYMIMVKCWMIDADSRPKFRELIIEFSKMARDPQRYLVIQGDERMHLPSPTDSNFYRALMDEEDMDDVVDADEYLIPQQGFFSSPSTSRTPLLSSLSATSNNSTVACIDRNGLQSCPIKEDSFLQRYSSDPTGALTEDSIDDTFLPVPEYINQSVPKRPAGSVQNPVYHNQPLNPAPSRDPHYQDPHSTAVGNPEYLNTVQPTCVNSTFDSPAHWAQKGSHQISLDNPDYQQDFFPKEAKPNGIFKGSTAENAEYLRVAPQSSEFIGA
Chain of Caspase-8 (Q14790 217-374 limits assumed): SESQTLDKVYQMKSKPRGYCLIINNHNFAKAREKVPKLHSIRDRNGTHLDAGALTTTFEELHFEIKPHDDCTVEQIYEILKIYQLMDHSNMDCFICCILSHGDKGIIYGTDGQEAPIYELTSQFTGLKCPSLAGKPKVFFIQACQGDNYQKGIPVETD
Chain of Caspase-8 (Q14790 385-479 limits assumed): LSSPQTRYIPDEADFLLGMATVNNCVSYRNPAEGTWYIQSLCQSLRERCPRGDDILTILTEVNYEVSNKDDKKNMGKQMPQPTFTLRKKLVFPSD
Chain of Cytochrome P450 2C9 (P11712 whole entry): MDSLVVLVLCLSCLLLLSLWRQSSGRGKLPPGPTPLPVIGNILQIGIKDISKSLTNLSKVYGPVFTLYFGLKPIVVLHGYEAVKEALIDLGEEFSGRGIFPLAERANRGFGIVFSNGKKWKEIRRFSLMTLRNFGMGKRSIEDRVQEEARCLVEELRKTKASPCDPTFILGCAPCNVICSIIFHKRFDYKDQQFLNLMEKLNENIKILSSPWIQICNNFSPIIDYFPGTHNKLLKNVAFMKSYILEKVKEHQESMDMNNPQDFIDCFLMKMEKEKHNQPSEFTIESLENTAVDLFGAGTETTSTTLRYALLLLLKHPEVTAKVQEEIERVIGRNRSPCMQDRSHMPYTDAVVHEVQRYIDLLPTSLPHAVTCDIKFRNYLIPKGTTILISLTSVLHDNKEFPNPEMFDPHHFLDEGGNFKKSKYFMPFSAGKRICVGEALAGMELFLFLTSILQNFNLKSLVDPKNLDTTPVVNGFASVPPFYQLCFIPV
Chain of D(2) dopamine receptor (P14416 whole entry): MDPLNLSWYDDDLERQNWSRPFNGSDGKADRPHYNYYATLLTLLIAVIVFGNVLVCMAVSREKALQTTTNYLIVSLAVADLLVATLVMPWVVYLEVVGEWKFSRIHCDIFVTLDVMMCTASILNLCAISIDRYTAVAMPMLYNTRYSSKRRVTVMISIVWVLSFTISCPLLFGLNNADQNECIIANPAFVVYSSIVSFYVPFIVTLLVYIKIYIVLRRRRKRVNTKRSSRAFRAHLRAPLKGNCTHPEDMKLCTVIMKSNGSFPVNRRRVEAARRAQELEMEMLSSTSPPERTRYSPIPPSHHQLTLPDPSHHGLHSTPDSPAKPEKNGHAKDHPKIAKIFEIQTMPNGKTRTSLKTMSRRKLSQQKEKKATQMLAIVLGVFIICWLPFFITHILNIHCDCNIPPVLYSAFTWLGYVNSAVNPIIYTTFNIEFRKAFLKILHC
Chain of Cannabinoid receptor 1 (P21554 whole entry): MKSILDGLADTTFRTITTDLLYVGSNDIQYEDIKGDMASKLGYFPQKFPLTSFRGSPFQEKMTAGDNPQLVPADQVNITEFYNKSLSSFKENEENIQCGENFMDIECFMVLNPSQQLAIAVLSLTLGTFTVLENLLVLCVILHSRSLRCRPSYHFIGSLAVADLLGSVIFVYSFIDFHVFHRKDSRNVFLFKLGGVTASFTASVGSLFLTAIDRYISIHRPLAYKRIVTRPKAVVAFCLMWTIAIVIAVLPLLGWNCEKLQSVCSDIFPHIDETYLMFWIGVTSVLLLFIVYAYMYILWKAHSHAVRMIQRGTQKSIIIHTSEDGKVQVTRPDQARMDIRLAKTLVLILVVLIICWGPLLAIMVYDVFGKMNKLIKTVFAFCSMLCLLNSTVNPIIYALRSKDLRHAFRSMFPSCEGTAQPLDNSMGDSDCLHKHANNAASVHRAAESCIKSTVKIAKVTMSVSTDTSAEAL
Chain of Prostacyclin receptor (P43119 whole entry): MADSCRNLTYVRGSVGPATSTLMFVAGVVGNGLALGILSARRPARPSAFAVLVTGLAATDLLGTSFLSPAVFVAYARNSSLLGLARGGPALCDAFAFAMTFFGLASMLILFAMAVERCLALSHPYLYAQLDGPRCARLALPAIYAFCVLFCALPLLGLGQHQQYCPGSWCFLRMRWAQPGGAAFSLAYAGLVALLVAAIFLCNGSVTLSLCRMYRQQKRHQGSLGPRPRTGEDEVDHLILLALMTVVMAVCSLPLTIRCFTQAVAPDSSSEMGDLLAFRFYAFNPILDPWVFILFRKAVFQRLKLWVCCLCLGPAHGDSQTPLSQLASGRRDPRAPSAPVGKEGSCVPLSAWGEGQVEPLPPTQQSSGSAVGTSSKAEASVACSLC
Chain of Insulin receptor (P06213 28-758 limits assumed): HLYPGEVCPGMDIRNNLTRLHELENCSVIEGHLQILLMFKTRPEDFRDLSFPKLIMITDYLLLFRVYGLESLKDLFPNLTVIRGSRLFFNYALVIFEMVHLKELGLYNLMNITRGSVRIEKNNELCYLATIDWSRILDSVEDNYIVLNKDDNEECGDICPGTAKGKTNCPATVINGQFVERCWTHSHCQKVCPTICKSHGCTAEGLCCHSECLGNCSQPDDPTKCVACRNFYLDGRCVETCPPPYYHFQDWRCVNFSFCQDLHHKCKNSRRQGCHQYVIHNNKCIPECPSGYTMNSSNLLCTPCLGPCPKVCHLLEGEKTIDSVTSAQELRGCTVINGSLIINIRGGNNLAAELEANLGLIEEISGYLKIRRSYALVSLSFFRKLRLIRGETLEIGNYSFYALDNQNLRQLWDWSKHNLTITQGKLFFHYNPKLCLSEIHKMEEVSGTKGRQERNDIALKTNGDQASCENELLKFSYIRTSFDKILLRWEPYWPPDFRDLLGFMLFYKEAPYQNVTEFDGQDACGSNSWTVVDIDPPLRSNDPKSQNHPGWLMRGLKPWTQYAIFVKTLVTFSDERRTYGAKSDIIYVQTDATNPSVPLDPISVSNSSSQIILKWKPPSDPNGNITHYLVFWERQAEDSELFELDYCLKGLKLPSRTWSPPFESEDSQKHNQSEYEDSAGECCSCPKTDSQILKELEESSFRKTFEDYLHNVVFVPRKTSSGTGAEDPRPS
Chain of Insulin receptor (P06213 763-1382 limits assumed): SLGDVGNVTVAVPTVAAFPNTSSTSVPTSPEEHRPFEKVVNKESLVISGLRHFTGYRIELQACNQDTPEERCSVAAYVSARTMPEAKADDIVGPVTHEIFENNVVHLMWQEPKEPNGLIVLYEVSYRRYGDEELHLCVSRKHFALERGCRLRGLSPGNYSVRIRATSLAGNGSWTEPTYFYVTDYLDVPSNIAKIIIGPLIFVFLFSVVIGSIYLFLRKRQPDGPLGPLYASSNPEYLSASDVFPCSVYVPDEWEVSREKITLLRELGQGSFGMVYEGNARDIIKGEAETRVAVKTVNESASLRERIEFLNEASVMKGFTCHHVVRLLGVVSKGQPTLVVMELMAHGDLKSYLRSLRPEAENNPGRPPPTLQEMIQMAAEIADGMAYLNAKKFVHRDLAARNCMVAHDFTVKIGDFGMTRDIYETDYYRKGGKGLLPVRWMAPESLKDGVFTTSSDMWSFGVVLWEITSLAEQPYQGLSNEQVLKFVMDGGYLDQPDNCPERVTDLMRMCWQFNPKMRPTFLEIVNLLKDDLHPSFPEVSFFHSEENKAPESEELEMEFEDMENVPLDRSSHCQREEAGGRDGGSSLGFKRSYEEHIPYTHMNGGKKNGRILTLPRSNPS

With CCC1CN(C(=O)Nc2ccccc2)c2ccc(-c3ccc(OCC(C)(C)C(=O)O)nc3)cc2O1 (configuration not stated) the IC50 (Cytochrome P450 2C9) was 0.5 µM, the IC50 [1] was 0.073 µM and the inhibition in vivo at 1 mg/kg (Mus musculus [2]) was 100%. For the same compound, the inhibition in vivo at 0.3 mg/kg (Mus musculus [3]) was 73% and the AUC [4] was 46 µM·h.

CCc1ccccc1NC(=O)N1C[C@@H](C)Oc2cc(-c3ccc([C@H]4CC[C@H](CC(=O)O)CC4)cc3)ccc21 gave a hepatocyte CLint [5] of 14 µL/min/1e6 cells, a Cmax [6] of 9.1 µM and a Cmax [7] of 0.6 µM. The Cmax [8] was 3.3 µM, the Cmax [9] was 5.7 µM and the half-life [10] was 3 h. The half-life [11] was 6.2 h, the half-life [12] was 3 h and the half-life [13] was 3 h. The bioavailability [14] was 75%, the bioavailability [15] was 89% and the Papp [16] was 20.1 ×10⁻⁶ cm/s. It also gave a hepatocyte CLint [17] of 10 µL/min/1e6 cells, a CLH (Hepatocyte) of 14 µL/min/1e6 cells and an inhibition in vivo at 3 mg/kg (Mus musculus [18]) of 93%. The IC50 [19] was 0.064 µM, the IC50 [1] was 0.044 µM and the solubility [20] was 50 µM (≈ 25.6 µg/mL). For the same compound, the inhibition in vivo at 3 mg/kg (Mus musculus [21]) was 87%, the fraction unbound [22] was < 0.005 and the fraction unbound [23] was < 0.005. For the same compound, the inhibition in vivo at 30 mg/kg (Mus musculus [24]) was > 5%, the Activity (Mus musculus [25]) was “Active” and the IC50 (Cannabinoid receptor 1) was > 10 µM. The IC50 [26] was > 10 µM, the IC50 (D(2) dopamine receptor) was > 10 µM and the IC50 [27] was > 10 µM. For the same compound, the IC50 [28] was > 10 µM, the IC50 [29] was > 10 µM and the IC50 [30] was > 10 µM. It also gave an IC50 (Caspase-8) of 6.8 µM, an IC50 (Caspase-9) of 5 µM and an IC50 [31] of 7.5 µM. The IC50 (Insulin receptor) was 5.7 µM, the IC50 (Prostacyclin receptor) was 1 µM and the AUC [32] was 41 µM·h. For the same compound, the AUC [33] was 3.7 µM·h, the AUC [34] was 23 µM·h and the AUC [35] was 64 µM·h. It also gave a hepatocyte CLint [36] of 6.2 µL/min/1e6 cells and a hepatocyte CLint [37] of 16 µL/min/1e6 cells.

O=C(Nc1ccc(OC(F)(F)F)cc1)Nc1ccc(-c2ccc(C(=O)[C@@H]3CCC[C@H]3C(=O)O)cc2)cc1F showed an Activity (Mus musculus [38]) of 2%.
